Test results as given in US4774248A, “Methods of treating depression and depressive states using 5-phenyl-1,4,5,6-tetrahydropyrimidine derivatives” (priority 1985, dated 1988).
Entries after “also recorded” stand apart in the source; their conditions may differ.

Assays:
[1] = tested on: depressions and depressive states; test: Clinical trials in depression and depressive states; assay type: in vivo, human; conditions: daily oral administration to adults
Procedure: The clinical trials which have been undertaken have made it possible to determine that the daily dose to be administered orally to adults, in the treatment of depressions and depressive states, is generally between 3 and 120 mg for the products of the formulae Ia and Ib according to the invention.

pH of aqueous solution = assay type: physicochemical
Procedure: The tests were carried out in solution in water at pH 4.0-5.5. The pH of the aqueous solution of CRL 41 378 varies according to the concentration: it is 4.0 at a concentration of 50 g/l, 4.5 at 12.5 g/l, 5.0 at 0.8 g/l and 5.5 at CRL 41 378 concentrations less than or equal to 0.2 g/l.

[2] = tested on: stereotypies induced by amphetamine; test: Interaction with amphetamine (rats); assay type: in vivo; conditions: i.p.; amphetamine 2 mg/kg
Procedure: (§1) The results of toxicological and neuropsychopharmacological tests which were carried out with the products according to the invention have been summarized below. In these tests, solutions of the said products in distilled water were administered intraperitoneally in a volume of 20 ml/kg to male mice and in a volume of 5 ml/kg to male rats.
(§2) Amphetamine (2 mg/kg) is injected intraperitoneally into groups of 6 rats 30 minutes after the administration of CRL 41 378.

mice [3] = test: Spontaneous motility (actimeter); assay type: in vivo; conditions: i.p.
Procedure: as §1
0.5 h after they have received CRL 41 378, the mice (6 per dose, 12 control animals) are placed in an actimeter, where their motility is recorded for 30 minutes.

pregnant rabbits = test: Teratogenic effects on pregnant rabbits; assay type: in vivo
anesthetized dogs = test: Cardiovascular study in anesthetized dogs; assay type: in vivo
[4] = tested on: hypothermia and ptosis induced by reserpine; test: Interaction with reserpine; assay type: in vivo; conditions: mice, i.p.; for action on hypothermia induced by reserpine / action on ptosis induced by reserpine: reserpine 2.5 mg/kg, hydrochloride
How it was run: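 Reserpine 2.5 mg/kg i.p. given to male mice in groups of 12; test compound dissolved in distilled water and given i.p. (20 ml/kg) four hours later.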

mice [5] = test: Motility reduced by habituation to the enclosure; assay type: in vivo; conditions: i.p.
Procedure: as §1
After they have stayed in the actimeters for 18 hours, the mice (6 per dose, 12 control animals) receive CRL 41 378. They are immediately returned to their respective enclosures and, half an hour later, their motility is recorded for 30 minutes.

mice [6] = test: Electric shock; assay type: in vivo; conditions: i.p.
Procedure: as §1
The test is performed on groups of 10 mice 30 minutes after the administration of CRL 41 378.

mice [7] = test: Behavioral despair (forced immersion); assay type: in vivo; conditions: mice which have been forcibly immersed, i.p.; hydrochloride
Procedure: as §1
Half an hour after they have received CRL 41 378, groups of 6 mice are placed in a beaker filled with water to a height of 6 cm. The total period of immobility between the 2nd and 6th minutes following immersion is noted.

[8] = tested on: stereotypies induced by amphetamine; test: Interaction with amphetamine (mice as printed); assay type: in vivo; conditions: in mice (so in the source), i.p.
Procedure: as §2
Using the procedures given above, the following results were obtained with a solution of CRL 41 382 in water at pH 6.

## CC(=O)N1C=NCC(c2ccccc2)C1.Cl (stereo not drawn) [CRL 41 378, 1-acetyl-5-phenyl-1,4,5,6-tetrahydropyrimidine hydrochloride]
[1]
  results in human therapy (depression): excellent results
pH of aqueous solution; 0.8 g/l
  pH of the aqueous solution: 5.0
pH of aqueous solution; 12.5 g/l
  pH of the aqueous solution: 4.5
pH of aqueous solution; 50 g/l
  pH of the aqueous solution: 4.0
pH of aqueous solution; less than or equal to 0.2 g/l
  pH of the aqueous solution: 5.5
[2]
  action on stereotypies induced by amphetamine: at the highest dose used (32 mg/kg), CRL 41 378 potentiates the stereotypies induced by amphetamine
Mice [3]; hydrochloride
  spontaneous motor activity: at a dose of 16 mg/kg and especially at a dose of 64 mg/kg, CRL 41 378 decreases the spontaneous motor activity of the mice; also recorded: a substantial decrease in the spontaneous motor activity of mice
Pregnant rabbits
  teratogenic effects: devoid of harmful teratogenic effects on pregnant rabbits
Anesthetized dogs; route not specified
  blood flows through the femoral and vertebral arteries: decreases the blood flows through the femoral and vertebral arteries
[4]; Mus musculus, ip, 24 h after administration, read-out: dose as from which the ptosis induced by reserpine is moderately decreased
  minimal effective dose: ≥ 0.5 mg/kg
[4]
  action on hypothermia induced by reserpine: at doses of 0.5 mg/kg to 4 mg/kg, CRL 41 378 antagonizes the hypothermia induced by reserpine; also recorded: this effect tends to decrease to nothing at a dose of 16 mg/kg; also recorded: the highest dose used (64 mg/kg) being inactive towards the hypothermia induced by reserpine; also recorded: antagonism of the hypothermia induced by apomorphine, reserpine and oxotremorine in mice
  action on ptosis induced by reserpine: moderate decrease in the ptosis induced by reserpine 24 h after administration; also recorded: absence of distinct antagonism of the ptosis induced by reserpine
Mice [5]
  resumption in the motor activity of mice accustomed to their enclosure: does not cause a resumption in the motor activity of mice accustomed to their enclosure
Mice [6]
  convulsant effects of electric shock: without modifying the convulsant effects
  lethal effects of electric shock: At the two highest doses studied (16 and especially 64 mg/kg), CRL 41 378 strongly aggravates the lethal effects of electric shock

## Cl.OC1(c2ccccc2)CN=CNC1 (stereo not drawn) [CRL 41 382, 5-hydroxy-5-phenyl-1,4,5,6-tetrahydropyrimidine hydrochloride]
[1]
  results in human therapy (depression): excellent results
Mice [7]
  period of immobility: does not modify the period of immobility; also recorded: absence of antagonism of the immobility due to "despair"
Mice [3]
  spontaneous motor activity: does not modify the spontaneous motor activity of mice
Pregnant rabbits
  teratogenic effects: devoid of harmful teratogenic effects on pregnant rabbits
Anesthetized dogs; intraduodenal
  blood flows through the femoral and vertebral arteries: decreases the blood flows through the femoral and vertebral arteries
Anesthetized dogs; intravenous
  blood flows through the femoral and vertebral arteries: decreases the blood flows through the femoral and vertebral arteries
[8]
  action on stereotypies induced by amphetamine: practically no modification of the stereotypies induced by amphetamine
[4]
  action on hypothermia induced by reserpine: At doses of 4 mg/kg and 16 mg/kg, CRL 41 382 opposes the hypothermia induced by reserpine; also recorded: At the highest dose used (64 mg/kg), CRL 41 382 has no effect on the hypothermia induced by reserpine; also recorded: antagonism of the hypothermia induced by reserpine no longer appears at the high dose of CRL 41 382 used
  action on ptosis induced by reserpine: practically no modification of the ptosis induced by reserpine; also recorded: absence of antagonism of the ptosis induced by reserpine
Mice [5]
  resumption in the motor activity of mice accustomed to their enclosure: does not cause a resumption in the motor activity of mice accustomed to their enclosure
Mice [6]
  lethal effects of electric shock: aggravates (at a dose of 64 mg/kg) the lethal effects of electric shock
Mice [6]; hydrochloride
  convulsant effects of electric shock: does not oppose the convulsant effects; also recorded: absence of any anticonvulsant action
